Reference: US4766130A, “2-phenyl-imidazopyridin-ones and also useful as cardiotonics and anti-hypertensives” (Celamerck GmbH & Co. KG, priority 1983, dated 1988)
Structures can show the parent of a compound that is named as a salt.

Test system: anesthetized cats
Assay: Determination of the effect on blood pressure and the positive inotropic effect in anesthetized cats
Assay type: in vivo
Conditions: 2 mg/kg i.v.; for Increase in dp/dtmax in %: left ventricle contractility parameter; for Reduction in Blood Pressure in mm Hg: arterial pressure, aorta abdominalis
Method: Determination of the effect on blood pressure and the positive inotropic effect in anesthetized cats
The tests were carried out on cats which had been anesthetized with sodium pentobarbital (40 mg/kg i.p.). The animals breathed spontaneously. The arterial blood pressure was measured in the aorta abdominalis, using a Statham pressure transducer (P 23 Dc). To determine the positive inotropic effect, the pressure in the left ventricle was measured with a catheter-tip manometer (Millar PC-350 A). From this, the contractility parameter dp/dtmax was obtained, using an analogue differentiator. The test compounds were injected into a vena femoralis. The solvent used was physiological saline solution of Polydiol 200. Each compound was tested on at least 3 cats, dosage 2 mg/kg i.v.

Row | Structure (SMILES) | Duration of effective action (Half life) [min] | Increase in dp/dtmax in % | Reduction in Blood Pressure in mm Hg (value after the slash) [mm Hg] | Reduction in Blood Pressure in mm Hg (value before the slash) [mm Hg]
1 | C#CCOc1ccc(-c2nc3c(=O)[nH]ccc3[nH]2)c(OC)c1 [F, 2-(2-methoxy-4-propargyloxy-phenyl)=5H-imidazo[4,5-c]pyridin-4-one] | 8 | +138% | -47 | -59
2 | COc1cc(OS(C)(=O)=O)ccc1-c1nc2[nH]c(=O)ncc2[nH]1 [A, 8-(2-methoxy-4-methanesulfonyloxy-phenyl)-3(1)H-purin-2-one] | 42 | +48% | -6 | -8
3 | COc1cc(OS(C)(=O)=O)ccc1-c1nc2c(OS(C)(=O)=O)nccc2[nH]1 [E, 2-(2-methoxy-4-methanesulfonyloxy-phenyl)-4-methanesulfonyloxy-imidazo[4,5-c]pyridine] | 29 | +87% | -27 | -35
4 | COc1cc(OS(C)(=O)=O)ccc1C1=NC2=NCC(=O)NC2=N1 [G, 2-(2-methoxy-4-methanesulfonyloxy-phenyl)-4H-imidazo[4,5-b]pyrazin-5-one] | 5 | +100% | -27 | -26
5 | COc1cc(OS(C)(=O)=O)ccc1-c1nc2c(=O)[nH]ccc2[nH]1 [D, 2-(2-methoxy-4-methanesulfonyloxy-phenyl)-5H-imidazo[4,5-c]pyridin-4-one hydrochloride] | 31 | +117% | -42 | -42
6 | COc1cc(OS(C)(=O)=O)ccc1-c1nc2nc(OS(C)(=O)=O)ccc2[nH]1 (single isomer, unassigned) [B, 2-(2-methoxy-4-methanesulfonyloxy-phenyl)-5-methanesulfonyloxy-imidazo[4,5-b]pyridine] | 37 | +53% | -42 | -50
7 | COc1cc(OS(C)(=O)=O)ccc1C1=NC2=CCC(=O)NC2=N1 [C, 2-(2-methoxy-4-methanesulfonyloxy-phenyl)-4H-imidazo[4,5-b]pyridin-5-one] | 31 | +158% | -54 | -54
